Target: T1, Cnx1E (Arabidopsis thaliana, UniProt Q39054)
T1 sequence (Q39054 1-452): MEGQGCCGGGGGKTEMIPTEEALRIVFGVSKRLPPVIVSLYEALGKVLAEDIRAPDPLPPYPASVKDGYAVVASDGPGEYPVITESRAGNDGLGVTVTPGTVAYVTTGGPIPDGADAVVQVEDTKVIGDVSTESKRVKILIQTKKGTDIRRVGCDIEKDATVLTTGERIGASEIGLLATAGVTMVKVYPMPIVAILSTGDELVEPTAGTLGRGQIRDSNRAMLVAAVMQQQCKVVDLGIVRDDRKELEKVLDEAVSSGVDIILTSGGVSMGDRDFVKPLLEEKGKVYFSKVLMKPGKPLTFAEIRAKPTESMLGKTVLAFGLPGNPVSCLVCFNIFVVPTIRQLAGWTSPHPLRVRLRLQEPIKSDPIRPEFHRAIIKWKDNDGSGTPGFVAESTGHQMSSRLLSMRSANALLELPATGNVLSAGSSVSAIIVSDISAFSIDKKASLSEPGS
Experiment: co-purified ligand, FormA-based HPLC
Type: binding
Settings: co-purified from E. coli RK5206, not added; phosphodiesterase I treated sample

Nc1nc2c(c(=O)[nH]1)N[C@H]1C(S)=C(S)[C@@H](COP(=O)(O)OP(=O)(O)OC[C@H]3O[C@@H](n4cnc5c(N)ncnc54)[C@H](O)[C@@H]3O)O[C@H]1N2 [MPT-AMP] was tested, and the binding stoichiometry was 0.0136 +/− 0.0048.

From paper PMC6639804 (The Biochemical journal, 2018)
